Series [1] is filed under the species Homo sapiens. Kind of series: Anti-adipogenic activity in human visceral preadipocytes assessed as decrease in lipid accumulation at 50 uM incubated for 48 hrs under induction medium containing hydrocortisone hemi-succinate prior to compound washout followed by shifting to differentiation medium containing compound supplemented with fresh medium every 48 to 72 hrs for 9 to 14 days by oil red O staining-based microscopic analysis. Type of series: functional, cell-based.

Series [2] relates to 3T3-L1. Kind of series: Anti-adipogenic activity in differentiated mouse 3T3L1 cells assessed as reduction in PPARgamma mRNA expression at 50 to 100 uM measured after 2 to 7 days by SYBR green dye-based qRT-PCR analysis. The series is classed as functional, cell-based. In general terms: Real-time PCR tracks product formation cycle by cycle.
The subject of series [3] is 3T3-L1. Kind of series: Anti-adipogenic activity in differentiated mouse 3T3L1 cells assessed as reduction in PPARgamma expression at 50 uM measured on day 3 by Western blot analysis. The series is classed as functional, cell-based. Background: Immunoblotting shows a protein as a band on a membrane.
Series [4] is described as follows: Half life in human liver microsomes. The series is classed as ADME, Microsome. (Liver microsomes are vesicles of endoplasmic reticulum, rich in cytochrome P450 enzymes.)
Series [5] relates to 3T3-L1. Kind of series: Cytotoxicity against mouse 3T3L1 cells up to 1 mM measured after 72 hrs under induction medium containing dehydrocorticosterone/cortisone by celltiter-glo luminescent cell viability assay. The series is classed as cell-based. As to conditions: 3t3-l1, 72 h.
The test system of series [6] is 3T3-L1. In words: Anti-adipogenic activity in differentiated mouse 3T3L1 cells assessed as reduction in 11beta-HSD1 expression at 50 uM measured on day 7 by Western blot analysis. The series is classed as functional, cell-based.
The target of series [7] is T1, 11-beta-hydroxysteroid dehydrogenase type 2 (Homo sapiens, UniProt P80365).
T1 sequence (P80365 whole entry): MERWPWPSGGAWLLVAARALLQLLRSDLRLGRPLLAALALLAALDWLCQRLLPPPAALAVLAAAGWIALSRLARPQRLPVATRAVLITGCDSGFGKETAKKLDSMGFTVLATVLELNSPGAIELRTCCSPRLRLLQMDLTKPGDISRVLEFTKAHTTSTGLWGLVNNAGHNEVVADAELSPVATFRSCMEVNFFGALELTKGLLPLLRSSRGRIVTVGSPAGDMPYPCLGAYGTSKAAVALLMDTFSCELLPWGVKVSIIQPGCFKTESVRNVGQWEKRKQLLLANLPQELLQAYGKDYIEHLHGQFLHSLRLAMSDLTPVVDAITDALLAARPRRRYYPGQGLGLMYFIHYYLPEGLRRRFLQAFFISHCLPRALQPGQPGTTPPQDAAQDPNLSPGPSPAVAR
In words: Inhibition of 11beta-HSD2 (unknown origin) expressed in HEK293 cells using cortisone as substrate measured after 2 hrs in presence of NAD+ by HTRF assay. Type of series: ADME, cell-based.

Series [8] relates to 3T3-L1. In words: Anti-adipogenic activity in mouse 3T3L1 preadipocytes assessed as reduction in C/EBPalpha mRNA expression at 50 to 100 uM measured daily for 2 days under induction media containing dehydrocorticosterone/cortisone by SYBR green dye-based qRT-PCR analysis. The series is classed as functional, cell-based.
In series [9] the test system is 3T3-L1. In words: Anti-adipogenic activity in mouse 3T3L1 preadipocytes assessed as reduction in C/EBPbeta mRNA expression at 50 to 100 uM measured daily for 2 days under induction media containing dehydrocorticosterone/cortisone by SYBR green dye-based qRT-PCR analysis. Type of series: functional, cell-based.
The species entered for series [10] is Homo sapiens. In words: Anti-adipogenic activity in human visceral preadipocytes assessed as decrease in lipid accumulation at 50 uM measured after 3 days under induction medium containing hydrocortisone hemi-succinate by oil red O staining-based microscopic analysis. The series is classed as functional, cell-based.
The nature of series [11]: Half life in mouse liver microsomes. The series is classed as ADME, Microsome.
Series [12] concerns 3T3-L1. In words: Anti-adipogenic activity in differentiated mouse 3T3L1 cells assessed as reduction in ACACB mRNA expression at 50 to 100 uM measured after 2 to 7 days by SYBR green dye-based qRT-PCR analysis. Type of series: functional, cell-based.
Series [13] concerns the target T2, Glucocorticoid receptor (Homo sapiens) (UniProt P04150).
T2 sequence (whole entry): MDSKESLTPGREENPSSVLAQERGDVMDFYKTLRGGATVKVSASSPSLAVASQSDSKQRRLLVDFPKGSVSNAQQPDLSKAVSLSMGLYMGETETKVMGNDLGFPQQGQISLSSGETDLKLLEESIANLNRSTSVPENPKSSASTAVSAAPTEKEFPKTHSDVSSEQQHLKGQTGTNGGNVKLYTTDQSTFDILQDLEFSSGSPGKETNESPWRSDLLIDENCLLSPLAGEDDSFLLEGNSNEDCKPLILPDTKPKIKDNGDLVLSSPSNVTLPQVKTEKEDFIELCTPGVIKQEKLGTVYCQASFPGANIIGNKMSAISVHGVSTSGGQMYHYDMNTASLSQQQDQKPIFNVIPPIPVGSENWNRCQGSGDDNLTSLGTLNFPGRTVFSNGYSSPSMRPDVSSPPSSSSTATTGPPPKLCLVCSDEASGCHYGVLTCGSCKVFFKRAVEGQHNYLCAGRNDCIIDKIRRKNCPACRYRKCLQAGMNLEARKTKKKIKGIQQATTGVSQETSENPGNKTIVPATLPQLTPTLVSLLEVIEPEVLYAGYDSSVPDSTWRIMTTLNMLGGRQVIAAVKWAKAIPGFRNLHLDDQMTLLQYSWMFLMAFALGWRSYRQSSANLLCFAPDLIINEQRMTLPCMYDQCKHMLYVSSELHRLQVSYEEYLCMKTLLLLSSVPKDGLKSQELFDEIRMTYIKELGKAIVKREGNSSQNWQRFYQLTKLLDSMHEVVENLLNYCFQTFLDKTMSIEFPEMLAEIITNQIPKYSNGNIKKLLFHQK
Kind of series: Antagonist activity at GR in human MDA-MB-231 cells at 50 uM measured after 4 hrs in presence of dexamethasone by luciferase reporter gene assay. Type of series: cell-based.

Series [14] concerns 3T3-L1. Kind of series: Anti-adipogenic activity in differentiated mouse 3T3L1 cells assessed as reduction in FABP4 mRNA expression at 50 to 100 uM measured after 2 to 7 days by SYBR green dye-based qRT-PCR analysis relative to control. The series is classed as functional.
The subject of series [15] is 3T3-L1. Kind of series: Anti-adipogenic activity in differentiated mouse 3T3L1 cells assessed as reduction in PGC1alpha expression at 50 uM measured on day 3 by Western blot analysis. The series is classed as functional, cell-based.
Series [16] has as its system 3T3-L1. Kind of series: Cytotoxicity against mouse 3T3L1 cells measured after 72 hrs by celltiter-glo luminescent cell viability assay. Type of series: ADME, cell-based. The conditions noted are these: 3T3-L1, 72 h.

The source made the active and inactive calls. The rule behind the calls is not given here.

Turning to `CC1=CC[C@@]2(C[C@@H]1O)[C@@H](C(=O)O)CC[C@H]2C(C)C`, the result in the series listed under Homo sapiens [1], in the series with 3T3-L1 [2], with 3T3-L1 [6], in the series with 3T3-L1 [8], with 3T3-L1 [9] and in the series with 3T3-L1 [12] was Active. The outcome (in the series on 3T3-L1 [3]; in the series listed under Homo sapiens [10]; in series [13]; in the series with 3T3-L1 [15]) was inactive. Further, the t1/2 was determined as 1.18 h in series [4] and 1.33 h in series [11]. The Activity entry with 3T3-L1 [5] is given as “Non-Toxic”. In [7], the IC50 (as a rule, the concentration needed to halve the response being measured) is over 500 µM. Further, the “fold change (FC)” value in the series on 3T3-L1 [14] is recorded as under 10. In addition, the 50% effective concentration (EC50) (in general, the concentration at which the effect is half-maximal) in the series with 3T3-L1 [16] was over 500 µM.
